According to patent publication EP1023075B1, “LIQUID PRESENTATIONS OF OXAZAPHOSPHORINE-CONTAINING PHARMACEUTICAL PRODUCTS” (STADA ARZNEIMITTEL AG, priority 1997, dated 1999):
In brackets after ≈: the same amount, converted by molar mass. Read-outs that look alike come from different tables or passages of the source.

Columns and labels:
[1] = cited from earlier work
[2] = Solubility trials: saturation concentration of the oxazaphosphorine in water / aqueous urea solution; settings: for pH-Wert: saturated Ifosfamid solution
[3] = water, Sättigungskonzentration in Wasser, in Wasser

O=P1(N(CCCl)CCCl)NCCCO1 (stereo not shown) [Cyclophosphamid]
Wirkstoffverlust ([1]; 2%ige (G/V) wäßrige Cyclophosphamidlösungen, 2 bis 8°C, nach 17 Wochen, 171360 min): ≤ 10% | Wirkstoffverlust ([1]; 2%ige (G/V) wäßrige Cyclophosphamidlösungen, Raumtemperatur, nach 7 Tagen): ≤ 10% | solubility ([2]; aqueous urea solution, Cyclophosphamid-Endkonzentration, Harnstoff-Startkonzentration 10 % (G/V), Harnstoff-Endkonzentration 9,1 % (G/G)): 87 mg/mL (≈ 333 mM) | solubility ([2]; aqueous urea solution, Cyclophosphamid-Endkonzentration, Harnstoff-Startkonzentration 20 % (G/V), Harnstoff-Endkonzentration 17,0 % (G/G)): 112 mg/mL (≈ 429 mM) | solubility ([2]; aqueous urea solution, Cyclophosphamid-Endkonzentration, Harnstoff-Startkonzentration 30 % (G/V), Harnstoff-Endkonzentration 24,2 % (G/G)): 136 mg/mL (≈ 521 mM) | solubility ([2]; aqueous urea solution, Cyclophosphamid-Endkonzentration, Harnstoff-Startkonzentration 40 % (G/V), Harnstoff-Endkonzentration 30,3 % (G/G)): 172 mg/mL (≈ 659 mM) | solubility ([2]; aqueous urea solution, Cyclophosphamid-Endkonzentration, Harnstoff-Startkonzentration 45 % (G/V), Harnstoff-Endkonzentration 37,3 % (G/G)): 170 mg/mL (≈ 651 mM) | solubility ([2]; aqueous urea solution, Cyclophosphamid-Endkonzentration, Harnstoff-Startkonzentration 50 % (G/V), Harnstoff-Endkonzentration 45,2 % (G/G)): 152 mg/mL (≈ 582 mM) | solubility ([2]; aqueous urea solution, Cyclophosphamid-Sättigungskonzentration, with Harnstoff, up to Harnstoffstartkonzentration 50% (G/V)): ≤ 170 mg/mL | solubility ([2]; water, Cyclophosphamid-Endkonzentration, Harnstoff-Startkonzentration 0 % (G/V), Harnstoff-Endkonzentration 0 % (G/G)): 61 mg/mL (≈ 234 mM) | solubility [2, 3]: ~60 mg/mL (≈ 230 mM)

O=P1(NCCCl)OCCCN1CCCl (stereo not shown) [Ifosfamid]
Wirkstoffverlust ([1]; 5%ige und 10%ige (G/V) wäßrige Ifosfamidlösungen, 2 bis 8°C, nach 17 Wochen, 171360 min): ≤ 10% | Wirkstoffverlust ([1]; 5%ige und 10%ige (G/V) wäßrige Ifosfamidlösungen, Raumtemperatur, nach 6 Wochen, 60480 min): ≤ 10% | solubility ([2]; aqueous urea solution, Ifosfamid-Endkonzentration, Harnstoff-Startkonzentration 1,0 % (G/V), Harnstoff-Endkonzentration 0,8 % (G/G)): 128 mg/mL (≈ 490 mM) | solubility ([2]; aqueous urea solution, Ifosfamid-Endkonzentration, Harnstoff-Startkonzentration 2,0 % (G/V), Harnstoff-Endkonzentration 1,6 % (G/G)): 132 mg/mL (≈ 506 mM) | solubility ([2]; aqueous urea solution, Ifosfamid-Endkonzentration, Harnstoff-Startkonzentration 3,0 % (G/V), Harnstoff-Endkonzentration 2,4 % (G/G)): 139 mg/mL (≈ 532 mM) | solubility ([2]; aqueous urea solution, Ifosfamid-Endkonzentration, Harnstoff-Startkonzentration 4,0 % (G/V), Harnstoff-Endkonzentration 3,2 % (G/G)): 147 mg/mL (≈ 563 mM) | solubility ([2]; aqueous urea solution, Ifosfamid-Endkonzentration, Harnstoff-Startkonzentration 5,0 % (G/V), Harnstoff-Endkonzentration 3,8 % (G/G)): 153 mg/mL (≈ 586 mM) | solubility ([2]; aqueous urea solution, Ifosfamid-Endkonzentration, Harnstoff-Startkonzentration 6,0 % (G/V), Harnstoff-Endkonzentration 4,4 % (G/G)): 159 mg/mL (≈ 609 mM) | solubility ([2]; aqueous urea solution, Ifosfamid-Endkonzentration, Harnstoff-Startkonzentration 7,0 % (G/V), Harnstoff-Endkonzentration 4,6 % (G/G)): 169 mg/mL (≈ 647 mM) | solubility ([2]; aqueous urea solution, Ifosfamid-Endkonzentration, Harnstoff-Startkonzentration 8,0 % (G/V), Harnstoff-Endkonzentration 5,0 % (G/G)): 172 mg/mL (≈ 659 mM) | solubility ([2]; aqueous urea solution, Ifosfamid-Endkonzentration, Harnstoff-Startkonzentration 9,0 % (G/V), Harnstoff-Endkonzentration 5,1 % (G/G)): 173 mg/mL (≈ 663 mM) | solubility ([2]; aqueous urea solution, Ifosfamid-Endkonzentration, Harnstoff-Startkonzentration 10,0 % (G/V), Harnstoff-Endkonzentration 6,6 % (G/G)): 370 mg/mL (≈ 1420 mM) | solubility ([2]; aqueous urea solution, Ifosfamid-Endkonzentration, Harnstoff-Startkonzentration 12,5 % (G/V), Harnstoff-Endkonzentration 7,0 % (G/G)): 412 mg/mL (≈ 1580 mM) | solubility ([2]; aqueous urea solution, Ifosfamid-Endkonzentration, Harnstoff-Startkonzentration 15 % (G/V), Harnstoff-Endkonzentration 12,2 % (G/G)): 462 mg/mL (≈ 1770 mM) | solubility ([2]; aqueous urea solution, Ifosfamid-Endkonzentration, Harnstoff-Startkonzentration 20 % (G/V), Harnstoff-Endkonzentration 15,8 % (G/G)): 483 mg/mL (≈ 1850 mM) | solubility ([2]; aqueous urea solution, Ifosfamid-Endkonzentration, Harnstoff-Startkonzentration 30 % (G/V), Harnstoff-Endkonzentration 24,2 % (G/G)): 521 mg/mL (≈ 2000 mM) | solubility ([2]; aqueous urea solution, Ifosfamid-Endkonzentration, Harnstoff-Startkonzentration 40 % (G/V), Harnstoff-Endkonzentration 34,3 % (G/G)): 462 mg/mL (≈ 1770 mM) | solubility ([2]; aqueous urea solution, Ifosfamid-Endkonzentration, Harnstoff-Startkonzentration 50 % (G/V), Harnstoff-Endkonzentration 42,1 % (G/G)): 443 mg/mL (≈ 1700 mM) | solubility ([2]; aqueous urea solution, Ifosfamid-Sättigungskonzentration, bei geeigneter Harnstoffkonzentration): ~500 mg/mL (≈ 1920 mM) | pH-Wert ([2]; Harnstoff-Startkonzentration 0 % (G/V)): 5,2 | pH-Wert ([2]; Harnstoff-Startkonzentration 1,0 % (G/V)): 5,0 | pH-Wert ([2]; Harnstoff-Startkonzentration 2,0 % (G/V)): 5,0 | pH-Wert ([2]; Harnstoff-Startkonzentration 3,0 % (G/V)): 5,0 | pH-Wert ([2]; Harnstoff-Startkonzentration 4,0 % (G/V)): 5,1 | pH-Wert ([2]; Harnstoff-Startkonzentration 5,0 % (G/V)): 5,1 | pH-Wert ([2]; Harnstoff-Startkonzentration 6,0 % (G/V)): 5,1 | pH-Wert ([2]; Harnstoff-Startkonzentration 7,0 % (G/V)): 5,1 | pH-Wert ([2]; Harnstoff-Startkonzentration 8,0 % (G/V)): 5,1 | pH-Wert ([2]; Harnstoff-Startkonzentration 9,0 % (G/V)): 5,2 | pH-Wert ([2]; Harnstoff-Startkonzentration 10,0 % (G/V)): 5,1 | pH-Wert ([2]; Harnstoff-Startkonzentration 12,5 % (G/V)): 5,0 | pH-Wert ([2]; Harnstoff-Startkonzentration 15 % (G/V)): 5,0 | pH-Wert ([2]; Harnstoff-Startkonzentration 20 % (G/V)): 5,0 | pH-Wert ([2]; Harnstoff-Startkonzentration 30 % (G/V)): 5,0 | pH-Wert ([2]; Harnstoff-Startkonzentration 40 % (G/V)): 5,0 | pH-Wert ([2]; Harnstoff-Startkonzentration 50 % (G/V)): 5,0 | solubility ([2]; water, Ifosfamid-Endkonzentration, Harnstoff-Startkonzentration 0 % (G/V), Harnstoff-Endkonzentration 0 % (G/G)): 118 mg/mL (≈ 452 mM) | solubility [2, 3]: ~120 mg/mL (≈ 460 mM)
